# Legend:
# [1] = tested on: Venezuelan equine encephalitis virus; experiment: Antiviral activity against Venezuelan equine encephalitis virus infected in human MRC5 cells assessed as virus induced cell death at 100 uM relative to control; assay type: functional
# [2] = tested on: Venezuelan equine encephalitis virus; experiment: Antiviral activity against Venezuelan equine encephalitis virus infected in human MRC5 cells assessed as inhibition of viral infection at 100 uM relative to control; assay type: functional
# [3] = Cytotoxicity against human MRC-5 cells assessed as reduction in cell viability; assay type: toxicity, cell-based, MRC5
# [4] = tested on: Venezuelan equine encephalitis virus; experiment: Antiviral activity against Venezuelan equine encephalitis virus infected in human MRC5 cells assessed as inhibition of virus induced cytopathic effect; assay type: functional, organism-based
# [5] = Safety index, ratio of CC50 for cytotoxicity against human MRC-5 cells to EC50 for antiviral activity against Venezuelan equine encephalitis virus infected in human MRC5 cells; assay type: toxicity, cell-based; conditions: read-out: Ratio CC50/EC50
SMILES,Activity [1] [%],inhibition at 100 µM [2] [%],CC50 [3] [µM],EC50 [4] [µM],selectivity ratio [5]
CC(OCc1c[nH]c(=O)[nH]c1=O)c1ccccc1 (stereo unspecified),11.63,10.1,,,
CC(OCc1cn([C@H]2O[C@H](CO)[C@@H](O)[C@H]2O)c(=O)[nH]c1=O)c1ccccc1 (stereo partly specified),25.09,30.6,,,
O=c1[nH]/c(=N\O)c(CO)cn1[C@@H]1O[C@H](CO)[C@@H](O)[C@H]1O,4.99,5.24,,,
CC(C)C(OCc1cn([C@H]2O[C@H](CO)[C@@H](O)[C@H]2O)c(=O)[nH]c1=O)c1ccccc1 (stereo partly specified),17.19,20.5,,,
CCC(OCc1cn([C@H]2O[C@H](CO)[C@@H](O)[C@H]2O)c(=O)[nH]c1=O)c1ccccc1 (stereo partly specified),20.81,26.3,,,
CC(C)(C)C(OCc1cn([C@@H]2O[C@H](CO)[C@@H](O)[C@H]2O)c(=O)[nH]/c1=N\O)c1ccccc1 (stereo partly specified),20.09,30.3,,,
CCC(OCc1cn([C@@H]2O[C@H](CO)[C@@H](O)[C@H]2O)c(=O)[nH]c1=N)c1ccccc1 (stereo partly specified),8.31,14.3,,,
O=c1[nH]cc(CO)c(=O)[nH]1,7.97,16.8,,,
CC(C)(C)C(OCc1cn([C@@H]2O[C@H](CO)[C@@H](O)[C@H]2O)c(=O)[nH]/c1=N\O)c1ccccc1Cl (stereo partly specified),30.28,95.3,135,37.6,3.59
CCC(OCc1cn([C@@H]2O[C@H](CO)[C@@H](O)[C@H]2O)c(=O)[nH]/c1=N\O)c1ccccc1 (stereo partly specified),4.87,10.5,,,
Cc1ccccc1C(OCc1cn([C@@H]2O[C@H](CO)[C@@H](O)[C@H]2O)c(=O)[nH]c1=N)C(C)(C)C (stereo partly specified),22.95,34.4,,,
CCC(OCc1c[nH]c(=O)[nH]c1=O)c1ccccc1 (stereo unspecified),6.21,24.8,,,
CC(OCc1cn([C@@H]2O[C@H](CO)[C@@H](O)[C@H]2O)c(=O)[nH]c1=O)c1ccccc1 (stereo partly specified),5.05,16.8,,,
CCC(OCc1cn([C@@H]2O[C@H](CO)[C@@H](O)[C@H]2O)c(=O)[nH]c1=O)c1ccccc1 (stereo partly specified),8.2,22.1,,,
CC(C)(C)C(OCc1cn([C@@H]2O[C@H](CO)[C@@H](O)[C@H]2O)c(=O)[nH]c1=O)c1ccccc1 (stereo partly specified),17.18,16.6,,,
N=c1[nH]c(=O)n([C@@H]2O[C@H](CO)[C@@H](O)[C@H]2O)cc1COCc1ccccc1Cl,10.11,29,,,
O=c1[nH]cc(COC(c2ccccc2)C2CCCCC2)c(=O)[nH]1 (stereo unspecified),8.05,10.5,,,
O=c1[nH]/c(=N\O)c(COCc2ccccc2Cl)cn1[C@@H]1O[C@H](CO)[C@@H](O)[C@H]1O,6.38,41.1,,,
Cc1ccccc1C(OCc1cn([C@@H]2O[C@H](CO)[C@@H](O)[C@H]2O)c(=O)[nH]/c1=N\O)C(C)(C)C (stereo partly specified),18.59,24.4,,,
CC(C)(C)C(OCc1cn([C@@H]2O[C@H](CO)[C@@H](O)[C@H]2O)c(=O)[nH]c1=N)c1ccccc1Cl (stereo partly specified),18.8,29.3,,,
Cc1ccccc1C(OCc1c[nH]c(=O)[nH]c1=O)C(C)(C)C (stereo unspecified),3.54,21.4,,,
CC(C)C(OCc1c[nH]c(=O)[nH]c1=O)c1ccccc1 (stereo unspecified),7.76,5.87,,,
CC(OCc1cn([C@@H]2O[C@H](CO)[C@@H](O)[C@H]2O)c(=O)[nH]c1=N)c1ccccc1 (stereo partly specified),11.51,31,,,

SMILES,Activity [1] [%],inhibition at 100 µM [2] [%],CC50 [3] [µM],EC50 [4] [µM],selectivity ratio [5]
N=c1[nH]c(=O)n([C@@H]2O[C@H](CO)[C@@H](O)[C@H]2O)cc1CO,29.79,12.2,,,
CC(OCc1cn([C@@H]2O[C@H](CO)[C@@H](O)[C@H]2O)c(=O)[nH]/c1=N\O)c1ccccc1 (stereo partly specified),5.54,10.5,,,
O=c1[nH]/c(=N\O)c(COCc2ccccc2)cn1[C@@H]1O[C@H](CO)[C@@H](O)[C@H]1O,16.09,12.4,,,
O=c1[nH]c(=O)n([C@@H]2O[C@H](CO)[C@@H](O)[C@H]2O)cc1COCc1ccccc1,22.88,25.5,,,
N=c1[nH]c(=O)n([C@@H]2O[C@H](CO)[C@@H](O)[C@H]2O)cc1COCc1ccccc1,18.86,24.9,,,
CC(C)(C)C(OCc1c[nH]c(=O)[nH]c1=O)c1ccccc1 (stereo unspecified),4.02,11.7,,,
O=c1[nH]cc(COCc2ccccc2)c(=O)[nH]1,0.22,9.66,,,
CC(C)C(OCc1cn([C@@H]2O[C@H](CO)[C@@H](O)[C@H]2O)c(=O)[nH]c1=O)c1ccccc1 (stereo partly specified),9.09,29,,,
CC(C)(C)C(OCc1cn([C@@H]2O[C@H](CO)[C@@H](O)[C@H]2O)c(=O)[nH]c1=N)c1ccccc1 (stereo partly specified),10.91,13.1,,,
CC(C)(C)C(OCc1cn([C@@H]2O[C@H](CO)[C@@H](O)[C@H]2O)c(=O)[nH]c1=O)c1ccccc1Cl (stereo partly specified),20.09,37.2,,,
CC(C)(C)C(OCc1c[nH]c(=O)[nH]c1=O)c1ccccc1Cl (stereo unspecified),4.74,11.6,,,
O=c1nc(NO)ccn1[C@@H]1O[C@H](CO)[C@@H](O)[C@H]1O [N-HYDROXYCYTIDINE],,,95.5,2.3,41.5
Cc1ccccc1C(OCc1cn([C@@H]2O[C@H](CO)[C@@H](O)[C@H]2O)c(=O)[nH]c1=O)C(C)(C)C (stereo partly specified),27.83,34,,,
O=c1[nH]c(=O)n([C@@H]2O[C@H](CO)[C@@H](O)[C@H]2O)cc1COC(c1ccccc1)C1CCCCC1 (stereo partly specified),16.28,15.9,,,
O=c1[nH]/c(=N\O)c(COC(c2ccccc2)C2CCCCC2)cn1[C@@H]1O[C@H](CO)[C@@H](O)[C@H]1O (stereo partly specified),25.09,35.5,,,
O=c1[nH]c(=O)n([C@H]2O[C@H](CO)[C@@H](O)[C@H]2O)cc1COCc1ccccc1Cl,12.73,18.8,,,
O=c1[nH]c(=O)n([C@@H]2O[C@H](CO)[C@@H](O)[C@H]2O)cc1COCc1ccccc1Cl,12.17,30.9,,,
O=c1[nH]c(=O)n([C@@H]2O[C@H](CO)[C@@H](O)[C@H]2O)cc1CO,11.71,17.4,,,
O=c1[nH]c(=O)n([C@H]2O[C@H](CO)[C@@H](O)[C@H]2O)cc1COCc1ccccc1,11.03,23,,,
N=c1[nH]c(=O)n([C@@H]2O[C@H](CO)[C@@H](O)[C@H]2O)cc1COC(c1ccccc1)C1CCCCC1 (stereo partly specified),17.83,24.9,,,
O=c1[nH]cc(COCc2ccccc2Cl)c(=O)[nH]1,9.35,12.9,,,
CC(C)C(OCc1cn([C@@H]2O[C@H](CO)[C@@H](O)[C@H]2O)c(=O)[nH]c1=N)c1ccccc1 (stereo partly specified),7.99,28.2,,,
CC(C)C(OCc1cn([C@@H]2O[C@H](CO)[C@@H](O)[C@H]2O)c(=O)[nH]/c1=N\O)c1ccccc1 (stereo partly specified),9.54,16.5,,,

# — ChEMBL document CHEMBL5365426, “Modification of N-hydroxycytidine yields a novel lead compound exhibiting activity against the Venezuelan equine encephalitis virus” (Bioorg Med Chem Lett, 2023)
